# Key:
# caspase-9 in PC-3 cells = assay: Activation of caspase-9 assay, PC-3; type: cell-based, human; conditions: for increase in activated caspase-9 as compared to vehicle treated control cells / PC-3 cells positively stained for activated caspase-9: 42 hrs; for PC-3 cells positively stained for activated caspase-9: vehicle control 3.1%
# Method: FIGS. 7A and 7B show the activation of caspase-9 by embelin in PC-3 prostate cancer cells and its selectivity in normal prostate epithelial cells. 1×10^6 PC-3 or PrEC cells per well in 6-well culture plates were treated with embelin for 48 hours. […] The cells were collected and stained of active caspase-9 by CaspGLOW Red Active Caspase-9 Staining Kit, and analyzed by flow cytometry in PI channel.
# 1×10^6 PC-3 cells per well in 6-well culture plates, were treated with various concentrations of embelin, or the same amount of solvent DMSO as vehicle control, for up to 48 hr. […] The cells were collected for staining of active caspase-9 by CaspGLOW Red Active Caspase-9 Staining Kit (BioVision, Inc., Mountain View, Calif.) according to the manufacturer's instructions, with modification. Briefly, to each tube containing 1×10^6 treated or control cells in 0.3 ml complete culture medium was added 1 μl of Red-LEHD-FMK and incubated for 0.5 hr at 37° C. incubator with 5% CO2. For double staining with Annexin V-FITC, the cells were spun down and resuspended in 100 μl Binding Buffer containing 1× Annexin V-FITC from the Annexin-V-FLUOS Kit (Roche) and incubated at room temperature for 10 min. The cells were then washed two times with Wash Buffer from the Active Caspase-9 Staining Kit. The cells were resuspended in 0.3 ml Binding Buffer and analyzed by flow cytometry, using PI channel for active caspase-9 and FITC channel for apoptosis.
# The active caspase-9 and Annexin V double stained cells were also observed under Zeiss Laser Scanning Confocal Microscope LSM 510 Meta, using the fluorescent filter sets for rhodamine (Red) and FITC (green) channels. Early apoptotic cells show green fluorescence on the cell membrane while caspase-9 positive cells show bright red staining in the cytoplasm. Photos were taken at original magnification of 630×.
# [1] = test system: methylcholanthrene-induced fibrosarcoma; conditions: methylcholanthrene-induced fibrosarcoma in albino rats (Chitra et al. 1994); cited from earlier work
# Jurkat-XIAP cells = assay: Cell growth assay, Jurkat-XIAP; type: cell-based; conditions: essentially identical to that in Jurkat-Vec cells
# Method: FIG. 9 presents inhibition of cell growth by embelin in Jurkat-Vec and Jurkat-XIAP cells. The cell growth results are expressed as the percent of control and calculated from the percent of absorbance of treated wells versus that of vehicle control.
# Human prostate cancer cell lines (PC-3, LNCap, CL-1, DU-145), and normal human fibroblast cell line WI-38 were obtained from the American Type Culture Collection (ATCC), were grown and maintained in Dulbecco's modified Eagle's medium (DMEM) containing 10% FBS (Invitrogen Corporation). Normal human prostate epithelial cells (PrEC) were obtained from Clonetics (Cambrex Inc., MD) and maintained in the special medium provided by the company. Jurkat T-cells stably transfected with either empty vector (Jurkat-Vec), or XIAP (Jurkat-XIAP) and were cultured in RPMI 1640 containing 10% fetal calf serum and 1 ug/ml puromycin. Cell cultures were maintained in a humidified incubator at 37° C. and 5% CO2.
# Cell growth was determined by the MTT-based assay using Cell Proliferation Reagent WST-1 (Roche) according to the manufacturer's instruction. The WST-1 assay is a colorimetric assay that measures the reduction of WST-1 by mitochondrial succinate dehydrogenase, which belongs to the respiratory chain of the mitochondria and is active only in viable cells. The WST-1 enters the cells and passes into the mitochondria, where it is reduced to a soluble, colored formazan product. The amount of formazan dye formed directly correlates to the number of metabolically active cells in the culture. Cells (5000 cells/well) were grown in medium with 10% FBS, and various concentrations of drugs were added to the cells in triplicate. […] Absorbance was measured with a plate reader at […] with correction at […]. The results are expressed as the percent of absorbance of treated wells versus that of vehicle control.
# [2] = test system: PC-3 prostate cancer cells; assay: WST-1 cell growth inhibition assay, PC-3; type: cell-based; conditions: Homo sapiens, 120 h; PC-3, WST-1, five days
# Method: (§1) FIG. 5 presents inhibition of cell growth by embelin in prostate cancer cells (PC-3 and LnCap) and its selectivity in normal human prostate epithelial cells (PrEC) and normal human fibroblast cell line, WI-38. 5000 cells per well in a 96-well cell culture plate were treated with various concentrations of embelin in triplicate. Five days later, the cell growth was measured by the WST-1 cell growth assay kit […] The cell growth results are expressed as the percent of control and calculated from the percent of absorbance of treated wells versus that of vehicle control.
# (§2) Human prostate cancer cell lines (PC-3, LNCap, CL-1, DU-145), and normal human fibroblast cell line WI-38 were obtained from the American Type Culture Collection (ATCC), were grown and maintained in Dulbecco's modified Eagle's medium (DMEM) containing 10% FBS (Invitrogen Corporation). Normal human prostate epithelial cells (PrEC) were obtained from Clonetics (Cambrex Inc., MD) and maintained in the special medium provided by the company. […]
# (§3) Cell growth was determined by the MTT-based assay using Cell Proliferation Reagent WST-1 (Roche) according to the manufacturer's instruction. […] Absorbance was measured with a plate reader at […] with correction at […]. The results are expressed as the percent of absorbance of treated wells versus that of vehicle control.
# [3] = test system: normal human prostate epithelial cells (PrEC); assay: WST-1 cell growth inhibition assay, PrEC; type: cell-based; conditions: 120 h, WST-1, five days
# Method: as §1, §2, §3
# [4] = test system: PC-3 prostate cancer cells; assay: Annexin V-FITC apoptosis assay by flow cytometry, PC-3; type: cell-based, human; conditions: 48 hours
# Method: FIG. 6 presents induction of apoptosis by embelin in PC-3 prostate cancer cells. 1×10^6 PC-3 cells per well in 6-well culture plates were treated with embelin for 48 hours, stained with Annexin V-FITC and propidium iodide for apoptosis by flow cytometry. The results are shown as percent of Annexin V-FITC positive apoptotic cells (n=3).
# PC-3 cells, 1×10^6 cells per well in 6-well culture plates, were treated in triplicate with various concentrations of embelin for 24 or 48 hours, then trypsinized and washed with PBS. For Jurkat cells, 1×10^6 Jurkat-XIAP or Jurkat-Vec cells per well in 6-well culture plates, were treated with etoposide, embelin, or both for 15 hours. For flow cytometry apoptosis assay, cells were stained with Annexin V-FITC and propidium iodide using the Annexin-V-FLUOS Kit (Roche) according to the manufacturer's instruction. The fluorescence of Annexin V-FITC and propidium iodide of individual cells was analyzed by FACScan. The results are shown as percent of Annexin V-FITC positive apoptotic cells.
structure (smiles),measurement,setting,value
CCCCCCCCCCCC1=C(O)C(=O)C=C(O)C1=O [embelin],increase in activated caspase-9 as compared to vehicle treated control cells,caspase-9 in PC-3 cells; 20 μM,10 fold
same,PC-3 cells positively stained for activated caspase-9,caspase-9 in PC-3 cells; 20 μM,33.0%
same,increase in activated caspase-9 as compared to vehicle treated control cells,caspase-9 in PC-3 cells; 40 μM,20 fold
same,PC-3 cells positively stained for activated caspase-9,caspase-9 in PC-3 cells; 40 μM,62.1%
same,activation of caspase-9 in PC-3 cells,caspase-9 in PC-3 cells; in words,effectively activates caspase-9 in a dose-dependant manner
same,antitumor activity,[1],significant antitumor activity
same,activity in cell growth assay,Jurkat-XIAP cells,weak activity
same,IC50,[2],3.7 µM
same,IC50,[3],20.1 µM
same,PC-3 cells that underwent apoptosis (Annexin V-FITC positive),[4]; 25 μM,30%
same,increase in apoptosis as compared to control cells,[4]; 25 μM,approximately 3 fold
same,PC-3 cells that underwent apoptosis (Annexin V-FITC positive),[4]; 50 μM,75%
same,increase in apoptosis as compared to control cells,[4]; 50 μM,~9 fold

# Source: US7910621B2, “Small molecule antagonists of XIAP family proteins” (The Regents of the University of Michigan, priority 2004, dated 2011)
